Source: US20210388320A1, “DIFFERENTIATION-INDUCED CELL POPULATION FROM WHICH […] CELLS HAVE BEEN REMOVED, USE OF SAME, AND METHOD FOR PRODUCING SAME” (priority 2014, published 2021)

How the values were obtained:
[1] = system: NHDF; test: Cell proliferation assay (CCK-8 assay) with BV (Example 3); format: cell-based, human; settings: 0.1-50 μg/ml BV, 72 hours
Description: (§1) In order to clarify how the number of human iPS cells changed with various BV concentrations and BV treatment times, BV was added in vitro to human iPS cells, cell proliferation assay (CCK-8 assay), which reflects the number of cells, was performed, and viable cells were evaluated quantitatively.
(§2) Three human iPS cell strains (253G1, MYH-GIP4, and 201B7) and NHDF were each seeded in a 12-well plate (cell density: 20% confluency). However, the cell density of NHDF was set to 50% confluency.
(§3) Forty-eight hours after seeding, 0, 0.1, 0.25, 0.5, 1, 2.5, 5,10, 25, and 50 μg/ml of BV was added to each well (the agent-containing medium was exchanged every 24 hours). Thereafter, cell proliferation assay was performed 72 hours after addition.

[2] = system: normal human dermal fibroblasts (NHDF); test: Microscope observation of cell death after BV addition, normal fibroblasts (Example 1); format: cell-based; settings: 5 μg/ml BV, 72 hours after addition
Description: Similarly, in order to examine the influence of BV on normal human dermal fibroblasts (NHDF), the same experiment as in Example 1 was conducted.
Human fibroblasts (NHDF) were seeded in a 12-well plate (cell density: 50% confluency). Forty-eight hours after seeding, 0, 0.05, and 5 μg/ml of BV was added to each well (the agent-containing medium was exchanged every 24 hours). Thereafter, microscope observation was performed every 24 hours.

[3] = system: Human iPS cell strain MYH-GIP4; test: Microscope observation of cell death after BV addition (Example 1); format: cell-based; settings: 5 μg/ml BV, 48 to 72 hours later
Description: Human iPS cell strain MYH-GIP4 was seeded in a 12-well plate (cell density: 20% confluency). Forty-eight hours after seeding, 0, 0.05, and 5 μg/ml of an anti-CD30 antibody-binding agent (general name: Brentuximab vedotin, abbreviated as “BV”) (trade name: Adcetris (registered trademark)) was added to each well (the agent-containing medium was exchanged every 24 hours). Thereafter, microscope observation was performed every 24 hours. Since Adcetris (registered trademark) contains additives, in addition to BV, numerical values converted from the net weight of BV were described (i.e., “0, 0.05, and 5 μg/ml as BY”).

[4] = system: human iPS cell strains (253G1, MYH-GIP4, and 201B7); test: Cell proliferation assay (CCK-8 assay) with BV (Example 3); format: cell-based; settings: 72 hours after treatment with 50 μg/ml BV, all the human iPS cells
Description: as §1, §2, §3

[5] = system: Lin28 expression in iPS-CM derived from human iPS cell strain 253G1; test: Lin28 expression by quantitative PCR in iPS-CM treated with BV (Example 4); format: cell-based
Description: This method is targeted for human iPS cell-derived cardiomyocytes (iPS-CM). iPS-CM is considered to contain tumorigenic undifferentiated cells, in addition to cardiomyocytes.
The method for inducing differentiation into cardiomyocytes was performed according to the following document: Matsuura K, et al. Creation of human cardiac cell sheets using pluripotent stem cells. Biochem Biophys Res Commun, 2012, and 425(2) pp. 321-7. iPS-CM derived from human iPS cell strain 253G1 was seeded in a 12-well plate (cell density: 90% confluency). Forty-eight hours after seeding, 0, 5, and 10 μg/ml of BV was added to each well (the agent-containing medium was exchanged every 24 hours). Thereafter, mRNA was extracted 72 hours and 96 hours after addition. Lin28 expression levels were quantified by quantitative PCR.

[6] = system: NHDF; test: Cell proliferation assay (CCK-8 assay) with BV (Example 2); format: cell-based, human; settings: 0-50 μg/ml BV, 24-72 hours
Description: as §1
Three human iPS cell strains (1231A3, MYH-GIP4, and 253G1) and NHDF were each seeded in a 12-well plate (cell density: 20% confluency). However, the cell density of NHDF was set to 50% confluency.
Forty-eight hours after seeding, 0, 5, 25, and 50 μg/ml of BV was added to each well (the agent-containing medium was exchanged every 24 hours). Thereafter, cell proliferation assay was performed 24 hours, 48 hours, and 72 hours after addition.

[7] = system: human iPS cell strain 253G1; test: Microscope observation and crystal violet staining after JQ1 addition (Example 5); format: cell-based; settings: 0.2 μM or more of JQ1, 96 hours later
Description: (§4) Human iPS cell strain 253G1 was seeded in a 12-well plate (cell density: 20% confluency). Human fibroblasts (NHDF) were seeded in a 12-well plate (cell density: 50% confluency).
(§5) Thereafter, microscope observation was performed 96 hours later, and crystal violet staining was carried out to visualize the cells (FIG. 9).

[8] = system: normal human dermal fibroblasts (NHDF); test: as above; format: cell-based; settings: JQ1 up to 10 μM, 96 hours
Description: as §4, §5

[9] = system: human iPS cell strain 253G1; test: Cell proliferation assay (CCK-8 assay) with JQ1 (Example 6); format: cell-based; settings: 0.2 μM or more of JQ1, 96 hours later
Description: Human iPS cell strain 253G1 was seeded in a 12-well plate (cell density: 20% confluency).
Thereafter, cell proliferation assay was performed 96 hours after addition (FIG. 10).

[10] = system: TRA-1-60 positive cells in iPS-CM derived from human iPS cell strain MYH-GIP4; test: TRA-1-60 positive rate in iPS-CM treated with JQ1 (Example 7); format: cell-based
Description: After differentiation of undifferentiated pluripotent stem cells is induced, a cell dissociation reagent, such as Accutase, is applied to about 1×10^5 to 5×10^5 differentiated cells at 37° C. for 5 minutes, and differentiated cells are dissociated and collected by centrifugation. The differentiated cells are suspended in […] of PBS, and an anti-human TRA-1-60 antibody and an isotype control antibody, both of which are fluorescently labeled, are each added. Then, the resultants are each reacted at 4° C. for 20 minutes in a dark place. After the differentiated cells are washed with PBS and collected by centrifugation, they are each suspended in […] of PBS, passed through a cell strainer, and then collected in FACS tubes. In flow cytometry, fluorescent emission is detected by a detector corresponding to labeled fluorescence, and quantified. Fractions stained with the isotype control antibody are defined as negative fractions, whereas fractions with a higher fluorescence intensity are defined as positive fractions. Among fractions stained with the anti-human TRA-1-60 antibody, the ratio belonging to the positive fractions is expressed as a percentage.
iPS-CM derived from human iPS cell strain MYH-GIP4 was seeded in a 12-well plate (cell density: 90% confluency). […] Thereafter, the TRA-1-60 positive rate was quantified 96 hours after addition. […]

Compound	effect of BV on cell proliferation [1]	induction of cell death (macroscopic observation) [2]	cell death (microscope observation) [3]	cell proliferation [4] [%]	expression of undifferentiated marker Lin28, of the control group (BV: 0 μg/ml) ([5]; 72-hour treatment, BV 5 and 10 μg/ml)	Lin28 expression level, pure human iPS cells regarded as 100% ([5]; 72nd hour, BV-added groups)	effect of BV on number of cells [6]	cell death (microscope observation, crystal violet staining) [7]	cell death (microscope observation, crystal violet staining) [8]	cell proliferation rate [9] [%]	TRA-1-60 positive rate ([10]; 1 μM JQ1, 96 hours after addition) [%]	TRA-1-60 positive rate ([10]; 5 μM JQ1, 96 hours after addition) [%]
Brentuximab vedotin [BV]	hardly affected	induction of cell death was not observed macroscopically	cell death was partially induced	≤ 20	about 50%	about 0.3%	hardly affected	–	–	–	–	–
Cc1sc2c(c1C)C(c1ccc(Cl)cc1)=N[C@@H](CC(=O)OC(C)(C)C)c1nnc(C)n1-2 [JQ1]	–	–	–	–	–	–	–	complete cell death was induced	cell death was not observed	≤ 10	0.2	0.1
